IC50 data for 27 compounds are collected here from US10308667B2, “Oxadiazolopyridine derivatives for use as ghrelin O-acyl transferase (GOAT) inhibitors” (Boehringer Ingelheim International GmbH, priority 2016, dated 2019).

human GOAT, sequence (Q96T53 whole entry): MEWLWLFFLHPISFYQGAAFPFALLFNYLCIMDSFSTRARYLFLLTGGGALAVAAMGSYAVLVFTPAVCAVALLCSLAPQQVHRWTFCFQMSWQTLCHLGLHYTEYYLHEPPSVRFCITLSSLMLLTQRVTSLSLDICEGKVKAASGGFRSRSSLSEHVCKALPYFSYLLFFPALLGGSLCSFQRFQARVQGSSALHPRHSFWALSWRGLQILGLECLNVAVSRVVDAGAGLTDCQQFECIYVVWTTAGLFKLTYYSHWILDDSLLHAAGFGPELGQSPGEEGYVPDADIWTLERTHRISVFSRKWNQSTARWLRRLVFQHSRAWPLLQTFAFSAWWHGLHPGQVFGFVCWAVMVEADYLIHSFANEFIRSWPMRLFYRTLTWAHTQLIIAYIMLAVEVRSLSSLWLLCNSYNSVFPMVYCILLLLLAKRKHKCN

This assay has as its target human GOAT (Homo sapiens (Human), UniProt Q96T53). In words: Determination of hGOAT Activity in HEK293 Cells after Incubation with Test Compound. The class given is cell-based. Conditions: HEK293 cells stably transfected with preproghrelin and human GOAT; octanoate-BSA 100 μM; acyl-ghrelin in medium by ELISA after 5 hours. How it is done:
Determination of hGOAT Activity in HEK293 Cells after Incubation with Test Compound
HEK293 cells stably transfected with two expression vectors, one coding for preproghrelin cDNA and a second for the expression of human GOATcDNA are used as a cellular model. After feeding the cells with octanoic acid for 5 hours, acyl-ghrelin is measured in cell culture medium by an ELISA procedure.
Cellline: Hek293 hGOAT/PPGhrl Clone #1B8Sodium octanoate, Sigma, Cat.-No. C5038
BD Poly-D-Lysin 384-well Plates, black-clear polystyrene BD Bioscience Cat.-No. […] ELISA human acylated Ghrelin Kit purchased from Bertin Pharman (detailed composition of buffers e.g. wash-puffer, ELISA buffer not known)
Cells are plated with a density of 5000 cells/well in 384-well poly-D-lysin plates and incubated for 1 day at 37° C., 5% CO2 in DMEM medium, 10% FCS, 1×NEAA, Puromycin (0.5 μg/ml) and G418 (1 mg/ml). Then the medium is changed to a identical medium without FCS and containing Octanoate-BSA (final concentration 100 μM each) and compound in DMSO (final DMSO concentration 0.3%). After incubation for 5 hours acylghrelin in the medium is measured by ELISA
The medium sample is diluted 1:25 in Elisa buffer, A 25 ul aliquot is transferred to a 384-well ELISA plate previously washed 4 times with 100 μL wash buffer, and 25 μl tracer-solution is added. After incubation overnight (˜20 h) at 4° C. temperature the plate is washed 4 times with 100 μl wash-buffer per well. Finally 50 μl Ellman's reagent is added to each well and the plate is incubated in the dark for 20 minutes. The absorbance is measured at 405 nm in an Envision multilabel reader and the amount of acylated ghrelin is calculated according to a acylated ghrelin standard curve provided in the same plate.
The analysis of the data is performed by calculation of the percentage of acyl-ghrelin produced in the presence of test compound compared to the amount of acyl-ghrelin produced in the vehicle control samples. An inhibitor of the GOAT enzyme will give values between 100% CTL (no inhibition) and 0% CTL (complete inhibition). IC50 values are calculated with Assay Explorer or other suited software based on curve fitting of results of 8 different compound concentrations.
On the technique in general: In an ELISA, binding on a coated surface is turned into a signal by an enzyme label.
`Cc1nc2nonc2c(N)c1Cc1ccc(C2CC2)cn1` [Example 39, 6-[(5-cyclopropylpyridin-2-yl)methyl]-5-methyl-[1,2,5]oxadiazolo[3,4-b]pyridin-7-amine]: half-maximal inhibition (IC50) was put at 0.18 nM.
The figure for `Cc1nc2nonc2c(N)c1Cc1ccc(OC2CC2)cn1` [Example 41, 6-[(5-cyclopropoxypyridin-2-yl)methyl]-5-methyl-[1,2,5]oxadiazolo[3,4-b]pyridin-7-amine] is 1.2 nM; for `Cc1nc2nonc2c(N)c1Cc1ccc(C2CC2)c(C#N)n1` [Example 42, 6-(7-amino-5-methyl-[1,2,5]oxadiazolo[3,4-b]pyridin-6-ylmethyl)-3-cyclopropylpyridine-2-carbonitrile] it is 0.073 nM.
For `Cc1nc2nonc2c(N)c1Cc1ccc(C#N)c(C2CC2)n1` [Example 43, 6-(7-amino-5-methyl-[1,2,5]oxadiazolo[3,4-b]pyridin-6-ylmethyl)-2-cyclopropylpyridine-3-carbonitrile], the IC50 was found to be 0.37 nM.
Next, `CSc1ccc(Cc2c(C)nc3nonc3c2N)nc1` [Example 44, 5-Methyl-6-(5-methylsulfanyl-pyridin-2-ylmethyl)-[1,2,5]oxadiazolo[3,4-b]pyridin-7-ylamine]: 0.17 nM; `Cc1nc2nonc2c(N)c1Cc1ncc(C#N)c(N)n1` [Example 45, 4-amino-2-(7-amino-5-methyl-[1,2,5]oxadiazolo[3,4-b]pyridin-6-ylmethyl)pyrimidine-5-carbonitrile]: 1.2 nM.
`Cc1nc2nonc2c(N)c1Cc1ncc(C(F)(F)F)c(N)n1` [Example 46, 2-(7-amino-5-methyl-[1,2,5]oxadiazolo[3,4-b]pyridin-6-ylmethyl)-5-(trifluoromethyl)pyrimidin-4-amine] came in with an IC50 of 0.22 nM.
Next, `Cc1nc2nonc2c(N)c1Cc1ccc(Cl)c(C#N)n1` [Example 47, 6-(7-amino-5-methyl-[1,2,5]oxadiazolo[3,4-b]pyridin-6-ylmethyl)-3-chloropyridine-2-carbonitrile]: 2.4 nM; `Cc1nc2nonc2c(N)c1Cc1ccc(C(F)(F)F)c(C#N)n1` [Example 48, 6-(7-Amino-5-methyl-[1,2,5]oxadiazolo[3,4-b]pyridin-6-ylmethyl)-3-trifluoromethyl-pyridine-2-carbonitrile]: 0.18 nM; `Cc1nc2nonc2c(N)c1Cc1ccc(C(F)(F)F)c(C(=O)C(C)C)n1` [Example 49, 1-[6-(7-Amino-5-methyl-[1,2,5]oxadiazolo[3,4-b]pyridin-6-ylmethyl)-3-trifluoromethyl-pyridin-2-yl]-2-methyl-propan-1-one]: 0.15 nM.
Compound `Cc1nc2nonc2c(N)c1Cc1ncc(C(F)(F)F)c(Cl)n1` [Example 50, 6-[4-chloro-5-(trifluoromethyl)pyrimidin-2-yl]methyl-5-methyl-[1,2,5]oxadiazolo[3,4-b]pyridin-7-amine] showed an IC50 of 2.5 nM.
For the compound `Cc1nc2nonc2c(N)c1Cc1nccc(C#N)n1` [Example 51, 2-(7-amino-5-methyl-[1,2,5]oxadiazolo[3,4-b]pyridin-6-ylmethyl)pyrimidine-4-carbonitrile], half-maximal inhibition (IC50) required 20 nM.
As to `Cc1nc2nonc2c(N)c1Cc1cccc(C(F)(F)F)n1` [Example 52, 5-Methyl-6-(6-trifluoromethyl-pyridin-2-ylmethyl)-[1,2,5]oxadiazolo[3,4-b]pyridin-7-ylamine], 0.48 nM corresponded to half-maximal inhibition (IC50).
`Cc1cccc(Cc2c(C)nc3nonc3c2N)n1` [Example 53, 5-Methyl-6-(6-methyl-pyridin-2-ylmethyl)-[1,2,5]oxadiazolo[3,4-b]pyridin-7-ylamine]: the IC50 was 2.6 nM.
Next, `CNC(=O)c1cccc(Cc2c(C)nc3nonc3c2N)n1` [Example 54, 6-(7-Amino-5-methyl-[1,2,5]oxadiazolo[3,4-b]pyridin-6-ylmethyl)-pyridine-2-carboxylic acid methylamide]: 0.24 nM; `Cc1nc2nonc2c(N)c1Cc1cccc(C(=O)N(C)C)n1` [Example 55, 6-(7-Amino-5-methyl-[1,2,5]oxadiazolo[3,4-b]pyridin-6-ylmethyl)-pyridine-2-carboxylic Acid Dimethylamide]: 3.9 nM; `Cc1nc2nonc2c(N)c1Cc1cccc(C(N)=O)n1` [Example 56, 6-(7-Amino-5-methyl-[1,2,5]oxadiazolo[3,4-b]pyridin-6-ylmethyl)-pyridine-2-carboxylic Acid Amide]: 0.72 nM.
Next, `Cc1nc2nonc2c(N)c1Cc1cccc(-c2ccco2)n1` [Example 57, 6-(6-Furan-2-yl-pyridin-2-ylmethyl)-5-methyl-[1,2,5]oxadiazolo[3,4-b]pyridin-7-ylamine]: 0.1 nM; `Cc1nc2nonc2c(N)c1Cc1ccccn1` [Example 58, 5-methyl-6-[(pyridin-2-yl)methyl]-[1,2,5]oxadiazolo[3,4-b]pyridin-7-amine]: 2.8 nM; `Cc1nc2nonc2c(N)c1Cc1cccc(-c2cncn2C)n1` [Example 59, 5-Methyl-6-[6-(3-methyl-3H-imidazol-4-yl)-pyridin-2-ylmethyl]-[1,2,5]oxadiazolo[3,4-b]pyridin-7-ylamine]: 0.34 nM.
For the compound `Cc1nc2nonc2c(N)c1Cc1cccc(-c2c(C)noc2C)n1` [Example 60, 6-[6-(3,5-Dimethyl-isoxazol-4-yl)-pyridin-2-ylmethyl]-5-methyl-[1,2,5]oxadiazolo[3,4-b]pyridin-7-ylamine], the IC50 is 0.48 nM.
The figure for `Cc1nc2nonc2c(N)c1Cc1cccc(-c2cn(C)nc2C(F)(F)F)n1` [Example 61, 5-Methyl-6-[6-(1-methyl-3-trifluoromethyl-1H-pyrazol-4-yl)-pyridin-2-ylmethyl]-[1,2,5]oxadiazolo[3,4-b]pyridin-7-ylamine] is 0.29 nM; for `Cc1nc2nonc2c(N)c1Cc1cccc(-c2c[nH]nc2C(F)(F)F)n1` [Example 62, 5-Methyl-6-[6-(3-trifluoromethyl-1H-pyrazol-4-yl)-pyridin-2-ylmethyl]-[1,2,5]oxadiazolo[3,4-b]pyridin-7-ylamine] it is 0.21 nM.
Consider `Cc1nc2nonc2c(N)c1Cc1cccc(C(C)(C)C#N)n1` [Example 63, 2-[6-(7-Amino-5-methyl-[1,2,5]oxadiazolo[3,4-b]pyridin-6-ylmethyl)-pyridin-2-yl]-2-methyl-propionitrile], for which it took 0.48 nM to reach half-maximal inhibition (IC50).
Next, `Cc1nc2nonc2c(N)c1Cc1cccc(C2(C#N)CCCC2)n1` [Example 64, 1-[6-(7-Amino-5-methyl-[1,2,5]oxadiazolo[3,4-b]pyridin-6-ylmethyl)-pyridin-2-yl]-cyclopentanecarbonitrile]: 0.1 nM; `Cc1nc2nonc2c(N)c1Cc1ccc(-c2cnn3c2CCC3)c(N)n1` [Example 65, 6-[6-Amino-5-(5,6-dihydro-4H-pyrrolo[1,2-b]pyrazol-3-yl)-pyridin-2-ylmethyl]-5-methyl-[1,2,5]oxadiazolo[3,4-b]pyridin-7-ylamine]: 0.29 nM; `Cc1nc2nonc2c(N)c1Cc1ccc(-c2c(C)noc2C)c(N)n1` [Example 66, 6-[6-Amino-5-(3,5-dimethyl-isoxazol-4-yl)-pyridin-2-ylmethyl]-5-methyl-[1,2,5]oxadiazolo[3,4-b]pyridin-7-ylamine]: 0.14 nM.

As usually defined, the IC50 is the concentration at which inhibition is half-maximal. Low values mean inhibition by little substance, high ones a need for much substance.
